Test results as given in ChEMBL document CHEMBL5329205, “Development of novel quinoline-NO donor hybrids inducing human breast cancer cells apoptosis via inhibition of topoisomerase I” (Bioorg Med Chem, 2023).
The source made the active and inactive calls. The calls are words filed in the database; no cut-off is given here.

Assays:
MCF7 [1] = assay: Induction of apoptosis in human MCF7 cells assessed as nucleus fragmentation upto 3 uM incubated for 48 hrs by Hoechst-33342 staining based fluorescent microscopic analysis; type: functional, cell-based
MCF7 [2] = assay: Induction of apoptosis in human MCF7 cells assessed as viable cells at 3 uM incubated for 48 hrs by Annexin-V/PI staining based flow cytometry analysis (reference value: 99.7%); type: functional; settings: read-out: Activity
A549 = assay: Antiproliferative activity against human A549 cells assessed as inhibition of cell growth incubated for 48 hrs by MTT assay; type: functional, cell-based; settings: A549, 48 h
[3] = Toxicity in BALB/c mouse xenografted with human MCF7 cells assessed as liver damage at 5 mg/kg, ip administered once every two days for 3 weeks by H and E staining based microscopic analysis; type: organism-based; settings: in vivo, 504 h
[4] = Toxicity in BALB/c mouse xenografted with human MCF7 cells assessed as spleen damage at 10 mg/kg, ip administered once every two days for 3 weeks by H and E staining based microscopic analysis; type: organism-based; settings: in vivo, 504 h
MCF7 [5] = assay: Antitumor activity against human MCF7 cells xenografted in BALB/c nude mouse assessed as reduction in tumor weight at 10 mg/kg, ip administered once every two days for 3 weeks relative to control; type: functional; design: scale not given: the % may be the effect or the level left
MCF7 [6] = assay: Induction of cell cycle arrest in human MCF7 cells assessed as G1 phase cells at 3 uM incubated for 24 hrs by PI/RNaseA staining based flow cytometry analysis (reference value: 66.08 %); type: functional
MCF7 [7] = assay: Antiproliferative activity against human MCF7 cells assessed as inhibition of cell growth incubated for 48 hrs by MTT assay; type: functional, cell-based; settings: MCF7, 48 h
MCF7 [8] = assay: Induction of cell cycle arrest in human MCF7 cells assessed as S phase cells at 1.5 uM incubated for 24 hrs by PI/RNaseA staining based flow cytometry analysis (reference value: 22.2 %); type: functional
MCF7 [9] = assay: Induction of apoptosis in human MCF7 cells assessed as upregulation of Bad expression incubated for 24 hrs by Western blot analysis; type: functional, cell-based; settings: dose 1-4 µM
MCF7 [10] = assay: Induction of apoptosis in human MCF7 cells assessed as late apoptotic cells at 0.75 uM incubated for 48 hrs by Annexin-V/PI staining based flow cytometry analysis (reference value: 0.0%); type: functional
MCF7 [11] = assay: Induction of cell cycle arrest in human MCF7 cells assessed as G2 phase cells at 0.75 uM incubated for 24 hrs by PI/RNaseA staining based flow cytometry analysis (reference value: 7.67 %); type: functional
MCF7 [12] = assay: Induction of apoptosis in human MCF7 cells assessed as upregulation of cleaved caspase-3 expression incubated for 24 hrs by Western blot analysis; type: functional, cell-based; settings: dose 1-4 µM
[13] = target: T1, DNA topoisomerase 1 (Homo sapiens) (UniProt P11387); assay: Inhibition of human DNA topoisomerase I mediated supercoiled DNA relaxation activity incubated for 30 mins by Ged Red staining based agarose gel electrophoresis analysis; settings: dose 20-100 µM
T1 sequence (whole entry): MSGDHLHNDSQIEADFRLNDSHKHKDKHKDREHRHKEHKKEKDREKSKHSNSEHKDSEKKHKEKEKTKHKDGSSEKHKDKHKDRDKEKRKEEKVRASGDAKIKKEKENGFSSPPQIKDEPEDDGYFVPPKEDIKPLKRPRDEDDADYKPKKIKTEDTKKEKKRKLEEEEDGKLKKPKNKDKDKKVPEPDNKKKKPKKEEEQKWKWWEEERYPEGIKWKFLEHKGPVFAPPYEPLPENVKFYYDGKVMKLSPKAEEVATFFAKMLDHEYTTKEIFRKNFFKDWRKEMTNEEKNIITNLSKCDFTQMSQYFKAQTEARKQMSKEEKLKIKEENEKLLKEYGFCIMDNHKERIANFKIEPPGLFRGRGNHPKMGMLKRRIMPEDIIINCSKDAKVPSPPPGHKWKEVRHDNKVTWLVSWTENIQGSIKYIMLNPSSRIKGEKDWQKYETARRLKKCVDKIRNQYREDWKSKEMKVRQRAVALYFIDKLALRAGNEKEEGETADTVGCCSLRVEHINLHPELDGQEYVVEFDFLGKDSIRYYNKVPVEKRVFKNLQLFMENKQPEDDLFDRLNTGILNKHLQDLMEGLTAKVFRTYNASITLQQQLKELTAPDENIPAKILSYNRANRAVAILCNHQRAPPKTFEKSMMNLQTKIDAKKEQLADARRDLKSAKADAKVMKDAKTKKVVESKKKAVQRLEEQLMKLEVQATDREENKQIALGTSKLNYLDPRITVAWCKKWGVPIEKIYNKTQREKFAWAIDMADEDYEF

MCF7 [14] = assay: Induction of apoptosis in human MCF7 cells assessed as bright blue appearance of cells upto 3 uM incubated for 48 hrs by Hoechst-33342 staining based fluorescent microscopic analysis; type: functional, cell-based
[15] = target: ATP-dependent translocase ABCB1 (Homo sapiens, UniProt P08183); assay: Inhibition of P-glycoprotein mediated Rhodamine-123 transport in human MCF7ADR cells assessed as increase in fluorescence index of rhodamine-123 at 1.5 to 3 uM incubated for 24 hrs by flow cytometry analysis; type: cell-based; settings: dose 1.5-3 µM
MCF7 [16] = assay: Induction of apoptosis in human MCF7 cells assessed as late apoptotic cells at 1.5 uM incubated for 48 hrs by Annexin-V/PI staining based flow cytometry analysis (reference value: 0.0%); type: functional
[17] = Toxicity in BALB/c mouse xenografted with human MCF7 cells assessed as kidney damage at 10 mg/kg, ip administered once every two days for 3 weeks by H and E staining based microscopic analysis; type: organism-based; settings: in vivo, 504 h
[18] = Toxicity in BALB/c mouse xenografted with human MCF7 cells assessed as lung damage at 5 mg/kg, ip administered once every two days for 3 weeks by H and E staining based microscopic analysis; type: organism-based; settings: in vivo, 504 h
[19] = Toxicity in BALB/c mouse xenografted with human MCF7 cells assessed as kidney damage at 5 mg/kg, ip administered once every two days for 3 weeks by H and E staining based microscopic analysis; type: organism-based; settings: in vivo, 504 h
NCI/ADR-RES = assay: Antiproliferative activity against human MCF7ADR cells assessed as inhibition of cell growth measured after 48 hrs by MTT assay; type: functional, cell-based
HCT-116 = assay: Antiproliferative activity against human HCT-116 cells assessed as inhibition of cell growth incubated for 48 hrs by MTT assay; type: functional, cell-based; settings: HCT-116, 48 h

ATP-dependent translocase ABCB1, sequence (P08183 whole entry): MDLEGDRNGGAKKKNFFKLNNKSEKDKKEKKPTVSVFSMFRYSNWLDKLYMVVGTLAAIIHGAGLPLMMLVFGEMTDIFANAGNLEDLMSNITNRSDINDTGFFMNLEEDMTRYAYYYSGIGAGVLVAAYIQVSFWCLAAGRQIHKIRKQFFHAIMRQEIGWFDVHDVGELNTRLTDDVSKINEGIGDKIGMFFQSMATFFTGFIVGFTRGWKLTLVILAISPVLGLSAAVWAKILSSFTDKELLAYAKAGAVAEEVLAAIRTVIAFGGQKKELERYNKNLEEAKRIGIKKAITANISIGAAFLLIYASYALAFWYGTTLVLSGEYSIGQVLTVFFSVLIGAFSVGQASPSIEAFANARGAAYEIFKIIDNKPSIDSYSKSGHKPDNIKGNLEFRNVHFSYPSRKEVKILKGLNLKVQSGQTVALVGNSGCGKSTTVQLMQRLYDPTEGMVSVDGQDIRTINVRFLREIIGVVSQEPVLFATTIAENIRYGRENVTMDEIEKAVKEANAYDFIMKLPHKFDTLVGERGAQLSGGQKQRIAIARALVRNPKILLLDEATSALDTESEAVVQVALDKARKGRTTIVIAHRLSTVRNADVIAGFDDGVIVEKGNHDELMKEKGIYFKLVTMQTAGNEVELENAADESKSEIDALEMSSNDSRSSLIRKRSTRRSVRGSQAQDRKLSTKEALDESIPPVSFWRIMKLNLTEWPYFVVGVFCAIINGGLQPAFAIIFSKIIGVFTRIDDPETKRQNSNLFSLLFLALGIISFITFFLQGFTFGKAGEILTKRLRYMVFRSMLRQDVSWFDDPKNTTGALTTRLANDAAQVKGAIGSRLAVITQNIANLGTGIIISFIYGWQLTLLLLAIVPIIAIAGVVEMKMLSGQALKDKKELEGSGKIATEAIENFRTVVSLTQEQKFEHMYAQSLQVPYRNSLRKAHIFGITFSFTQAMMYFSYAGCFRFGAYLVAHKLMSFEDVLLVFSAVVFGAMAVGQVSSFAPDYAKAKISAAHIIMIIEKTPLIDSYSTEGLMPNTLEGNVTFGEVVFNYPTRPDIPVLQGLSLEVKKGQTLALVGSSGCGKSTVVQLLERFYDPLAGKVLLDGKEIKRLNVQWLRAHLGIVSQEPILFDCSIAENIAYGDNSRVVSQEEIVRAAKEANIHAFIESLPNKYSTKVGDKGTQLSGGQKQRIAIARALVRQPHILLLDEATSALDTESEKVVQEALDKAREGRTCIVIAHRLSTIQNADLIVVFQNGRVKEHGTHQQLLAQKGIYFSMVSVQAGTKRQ

## COc1cc(-c2cc(C(=O)OCCCCCOc3no[n+]([O-])c3S(=O)(=O)c3ccccc3)c3ccccc3n2)cc(OC)c1OC
MCF7 [1]
  Activity: Active
MCF7 [2]
  viability at 3 µM: 34.4%
A549
  IC50: 2.13 µM
[3]
  Activity: Non-Toxic
[4]
  Activity: Non-Toxic
MCF7 [5]
  Activity: 66.79%
MCF7 [6]
  Activity: 58.98%
MCF7 [7]
  IC50: 1.45 µM
MCF7 [8]
  Activity: 20.71%
MCF7 [9]
  Activity: Dose-Dependent Effect
MCF7 [10]
  Activity: 18%
MCF7 [11]
  Activity: 10.62%
MCF7 [12]
  Activity: Dose-Dependent Effect
[13]
  inhibition: Dose-Dependent Effect
MCF7 [14]
  Activity: Active
[15]
  inhibition (INH): Active
MCF7 [16]
  Activity: 18.1%
[17]
  Activity: Non-Toxic
[18]
  Activity: Non-Toxic
[19]
  Activity: Non-Toxic
NCI/ADR-RES
  IC50: 0.62 µM
HCT-116
  IC50: 2.48 µM
